Reference: patent US6956033B2, “3,4-dihydroisoquinoline derivative compound and a pharmaceutical agent comprising it as active ingredient” (Ono Pharmaceutical Co., Ltd., priority 2000, dated 2005)

What follows are compounds tested against T1, Human CB2 receptors (Homo sapiens, UniProt P34972) (assay: In vitro signaling assay: inhibition of forskolin-induced cAMP production in human CB2 receptor expressing CHO cells). Conditions: inhibition of 10 μM forskolin-induced cAMP production, human CB2 receptors expressed CHO cells, cAMP EIA.
T1 construct: expressed in transfected cells; host or cells: CHO cells
T1 sequence (P34972 whole entry): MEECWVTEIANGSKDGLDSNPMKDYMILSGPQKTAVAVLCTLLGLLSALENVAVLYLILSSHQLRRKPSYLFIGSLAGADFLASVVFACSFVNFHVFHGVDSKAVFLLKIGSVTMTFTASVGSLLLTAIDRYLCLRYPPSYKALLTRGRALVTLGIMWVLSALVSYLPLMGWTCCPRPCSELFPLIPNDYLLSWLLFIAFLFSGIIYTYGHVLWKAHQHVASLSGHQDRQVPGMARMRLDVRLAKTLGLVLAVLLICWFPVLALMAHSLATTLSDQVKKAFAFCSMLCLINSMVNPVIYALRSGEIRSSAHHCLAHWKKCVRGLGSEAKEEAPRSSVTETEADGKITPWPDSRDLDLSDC
Assay type: cell-based
Description: It was confirmed by the following experiment that the compound of formula (I) of the present invention has CB2 receptor agonist activity.
Method for the Experiment:
Human CB2 receptors expressed CHO cells were used for the assays. Cells were dispersed seeded in 96-well plates in a density of 5×10^4 cells/well, and were subjected to experiment the next day. After removing the culture media 1 mM isobutylmethylxanthine (IBMX) solution was added, and cells were incubated for 10 minutes at room temperature. Next, a mixture of 10 μM forskolin and the compound of the present invention was added. After additional incubation for 15 minutes at room temperature, the culture supernatant was discarded and 200 μl of lysis reagent (attached to a cAMP EIA) was added. The amounts of cAMP of the lysate were determined by a cAMP EIA kit (Amersham) under conditions of the forskolin-induced cAMP production. The compound of the present invention was dissolved in DMSO and the solution was diluted to adjust the final concentration of DMSO to 0.1%. IC50 values were calculated from the inhibitory ratio of the compound of the present invention toward the amount of the forskolin-induced cAMP production. By the same experiment using CHO cells, it was confirmed that this inhibitory effect toward cAMP production by the compound was mediated via the human CB2 receptors.

| IC50 [pM] | SMILES |
| --- | --- |
| 800 | O=C(/C=C1\NC2(CCOCC2)Cc2ccccc21)c1ccccc1 [1(33), (Z)-2-(spiro[3,4-dihydro-(2H)-isoquinolin-3,4′-3,4,5,6-tetrahydropyran]-1-ylidene)-1-phenylethan-1-one] |
| 2400 | CC1(C)Cc2ccccc2/C(=C/C(=O)C2CCCCC2)N1 [compound 1] |
| 400 | CC1(C)Cc2ccccc2/C(=C/C(=O)C2CCCCCC2)N1 [1(11), (Z)-2-(3,3-dimethyl-3,4-dihydro-(2H)-isoquinolin-1-ylidene)-1-cycloheptylethan-1-one] |
